Data taken from article PMC3038857, “Using Nuclear Receptor Activity to Stratify Hepatocarcinogens” (PLoS ONE, 2011).
Read-outs that look alike come from different tables or passages of the source.

Experiments:
CAR (NR1I3) [1] = biological target: T1, CAR (NR1I3) (Homo sapiens, UniProt Q14994); test: NVS_NR_hCAR: Human CAR CITCO (cell-free HTS); type: binding
T1 sequence (Q14994 1-352): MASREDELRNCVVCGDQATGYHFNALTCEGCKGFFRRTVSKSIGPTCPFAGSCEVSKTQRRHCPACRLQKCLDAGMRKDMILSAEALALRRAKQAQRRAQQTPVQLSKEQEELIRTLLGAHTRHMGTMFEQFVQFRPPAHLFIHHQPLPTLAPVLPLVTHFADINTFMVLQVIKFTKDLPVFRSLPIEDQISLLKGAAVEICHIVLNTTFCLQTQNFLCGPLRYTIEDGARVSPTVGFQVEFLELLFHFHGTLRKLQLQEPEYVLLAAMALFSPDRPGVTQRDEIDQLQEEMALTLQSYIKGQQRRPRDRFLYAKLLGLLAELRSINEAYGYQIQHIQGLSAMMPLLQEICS
Description: (§1) These are a collection of biochemical assays measuring binding constants and enzyme inhibition values. Chemicals were initially screened at a single concentration in duplicate wells at a concentration of 10 [drawing 63] M for cytochrome P-450 assays and 25 [drawing 64] M for all others. […] These assays were run by Caliper Life Sciences (Hanover, MD) under contract to EPA. Short assay descriptions are available at: http://www.caliperls.com/products/contract-research/in-vitro/.
(§2) Cell-free HTS Assays: A collection of biochemical assays measuring binding constants and enzyme inhibition values. […] These assays were run by Caliper Life Sciences (Hanover, MD) under contract to EPA. Short assay descriptions are available at http://www.caliperls.com/products/contract-research/in-vitro/. Values for all endpoints were imported into GeneData Screener (Basel, Switzerland) and normalised to solvent controls from the same plate as the tested compounds and expressed as percent of neutral control. Concentration-response curves were fit in GeneData Screener (Basel, Switzerland) Condeseo module using the Hill equation and AC50 values were determined. […] Detailed description of the methods, data and analysis methods for this dataset are described in a separate publication.

CAR (NR1I3) [2] = biological target: T1, CAR (NR1I3); test: NVS_NR_hCAR_Agonist: Human CAR CITCO Agonist (cell-free HTS); type: biochemical; conditions: scale not given, looks like -log10 of molar active concentration, 0 = no activity
Description: as §1, §2

CAR (NR1I3) [3] = biological target: T1, CAR (NR1I3); test: ATG_CAR_TRANS: Factorial reporter gene assay (HepG2); type: cell-based; set-up: endogenous in cells; host or cells: HepG2
Procedure: (§3) A multiple reporter transcription unit (MRTU) library consisting of 48 transcription factor binding sites was transfected into the HepG2 human liver hepatoma cell line. In addition to the cis-acting reporter genes (CIS), a modification of the approach was used to generate a trans-system (TRANS) with a mammalian one-hybrid assay consisting of an additional 25 MRTU library reporting the activity of nuclear receptor super-family members. […] These assays were performed by Attagene Inc. (Morrisville NC) under contract to EPA.
(§4) In addition to the cis-acting reporter genes (CIS), a modification of the approach was used to generate a trans-system (TRANS) with a mammalian one-hybrid assay consisting of an additional 25 MRTU library reporting the activity of nuclear receptor super-family members. […] Chemicals were then tested in the CIS and TRANS assays at seven concentrations starting at the MTC and followed by three-fold serial dilutions. These assays were performed by Attagene Inc. (Morrisville NC) under contract to EPA. Detailed description of the methods, data and analysis methods for this dataset will be presented in a separate publication.

Mouse Liver = conditions: ref ToxRefDB, cited from earlier work
[4] = biological target: T2, PPARD (peroxisome proliferator-activated receptor delta) (Homo sapiens, UniProt Q03181); test: ATG_PPARd_TRANS: Factorial reporter gene assay (HepG2); type: cell-based; set-up: scale not given here; conditions: scale not given, looks like -log10 of molar active concentration, 0 = no activity
T2 construct: expressed in transfected cells; host or cells: HepG2
T2 sequence (Q03181 1-441): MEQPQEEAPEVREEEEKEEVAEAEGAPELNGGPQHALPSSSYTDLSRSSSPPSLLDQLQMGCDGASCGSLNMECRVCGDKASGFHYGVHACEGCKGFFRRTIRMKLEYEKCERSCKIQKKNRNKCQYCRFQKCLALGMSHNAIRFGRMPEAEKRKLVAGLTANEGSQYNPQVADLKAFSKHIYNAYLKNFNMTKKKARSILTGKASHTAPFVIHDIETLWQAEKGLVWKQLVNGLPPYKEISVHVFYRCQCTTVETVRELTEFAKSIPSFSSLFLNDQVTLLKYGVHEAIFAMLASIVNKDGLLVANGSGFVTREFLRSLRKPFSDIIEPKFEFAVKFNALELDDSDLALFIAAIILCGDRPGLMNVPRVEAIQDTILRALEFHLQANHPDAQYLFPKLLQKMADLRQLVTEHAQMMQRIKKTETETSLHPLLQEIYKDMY
Procedure: as §3, §4

FXR (NR1H4) = biological target: T3, FXR (NR1H4) (Homo sapiens, UniProt Q96RI1); test: NVS_NR_hFXR: Human FXR CDCA (cell-free HTS); type: binding; conditions: scale not given, looks like -log10 of molar active concentration, 0 = no activity
T3 sequence (Q96RI1 1-486): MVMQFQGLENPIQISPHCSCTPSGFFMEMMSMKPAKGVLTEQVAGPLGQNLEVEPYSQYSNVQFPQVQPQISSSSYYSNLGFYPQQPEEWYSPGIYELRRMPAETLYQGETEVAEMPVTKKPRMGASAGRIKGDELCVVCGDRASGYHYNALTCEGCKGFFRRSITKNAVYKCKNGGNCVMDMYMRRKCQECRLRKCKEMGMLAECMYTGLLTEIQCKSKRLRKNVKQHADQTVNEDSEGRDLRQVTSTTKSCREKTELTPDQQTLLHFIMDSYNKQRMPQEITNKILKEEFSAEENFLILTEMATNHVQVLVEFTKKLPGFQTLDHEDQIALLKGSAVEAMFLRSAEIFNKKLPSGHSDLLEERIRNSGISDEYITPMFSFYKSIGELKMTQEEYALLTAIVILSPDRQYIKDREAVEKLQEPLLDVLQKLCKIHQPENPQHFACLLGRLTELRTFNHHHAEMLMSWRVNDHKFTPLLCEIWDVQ
Description: as §1, §2

[5] = scale not given, looks like -log10 of molar active concentration, 0 = no activity
[6] = HepG2, scale not given, looks like -log10 of molar active concentration, 0 = no activity
[7] = mouse chronic study, liver, any lesion, coded 6 / Inf / 0, code not explained here

| Compound | NVS_NR_hCAR (CAR (NR1I3) [1]; [5]) | NVS_NR_hCAR_Agonist (CAR (NR1I3) [2]) | ATG_CAR_TRANS (CAR (NR1I3) [3]; [6]) | CHR_Mouse_Liver_1_AnyLesion (Mouse Liver; [7]) | ATG_PPARd_TRANS [4] | NVS_NR_hFXR (FXR (NR1H4)) | CHR_Mouse_Liver_1_AnyLesion (Mouse Liver; chronic mouse study, liver) | CHR_Mouse_Liver_1_AnyLesion (Mouse Liver; mouse, chronic study) | NVS_NR_hCAR (CAR (NR1I3) [1]) | ATG_CAR_TRANS (CAR (NR1I3) [3]; HepG2 reporter) | CHR_Mouse_Liver_1_AnyLesion (Mouse Liver; chronic study, mouse liver) |
| --- | --- | --- | --- | --- | --- | --- | --- | --- | --- | --- | --- |
| C=CCOC(=O)C(C)(C)OC(=O)c1cc(-n2c(=O)cc(C(F)(F)F)n(C)c2=O)ccc1Cl [r47] | 0 | 0 | 0 | 6 | 0 |  |  |  |  |  |  |
| CC1=C(C(=O)Nc2ccccc2)SCCO1 [r53] |  |  |  | 6 | 0 | 0 |  |  |  |  |  |
| O=C(Nc1ccccc1-c1ccc(Cl)cc1)c1cccnc1Cl [r42] | 0 | 0 | 0 | 6 | 0 |  |  |  |  |  |  |
| COc1ccc(-c2ccccc2)cc1NNC(=O)OC(C)C [r38] | 0 | 0 | 0 | 6 |  | 0 |  |  |  |  |  |
| N#Cc1cc(Br)c(O)c(Br)c1 [r44] | 0 | 0 | 0 | 6 | 0 | 0 |  |  |  |  |  |
| CC(C)OC(=O)Nc1cccc(Cl)c1 [r59] |  |  |  | 6 | 0 | 0 |  |  |  |  |  |
| CCC(C)n1c(=O)[nH]c(C)c(Br)c1=O (centres unmarked) [r43] | 0 | 0 | 0 | 6 |  | 0 |  |  |  |  |  |
| COc1nc(C)nc(NC(=O)NS(=O)(=O)c2ccccc2Cl)n1 [r62] | 0 | 0 | 0 |  |  |  |  |  |  |  |  |
| CC(C)N1C(=O)c2ccccc2NS1(=O)=O [r37] |  |  |  | 6 | 0 |  |  |  |  |  |  |
| CC(C)Oc1cc(-n2nc(C(C)(C)C)oc2=O)c(Cl)cc1Cl [row 225] |  |  |  |  |  |  | 6 |  |  |  |  |
| CCOC(=O)C(Cl)Cc1cc(-n2nc(C)n(C(F)F)c2=O)c(F)cc1Cl (centres unmarked) [r54] | 0 | 0 | 0 | 6 | 0 | 0 |  |  |  |  |  |
| CCC(C)Nc1c([N+](=O)[O-])cc(C(C)(C)C)cc1[N+](=O)[O-] (centres unmarked) [r48] |  |  |  |  | 0 |  |  |  |  |  |  |
| O=C1C2CC=CCC2C(=O)N1SC(Cl)(Cl)Cl (centres unmarked) [r51] | 0 | 0 | 0 |  | 0 |  |  |  |  |  |  |
| CC(C)N1C(=O)N(c2ccccc2)CS/C1=N\C(C)(C)C [r45] | 0 | 0 | 0 | 6 | 0 |  |  |  |  |  |  |
| N#Cc1c(Cl)c(Cl)c(Cl)c(C#N)c1Cl [r58] | 0 | 0 | 0 |  | 0 | 0 |  |  |  |  |  |
| C#CCC1=C(C)[C@H](OC(=O)[C@H]2[C@H](C=C(C)C)C2(C)C)CC1=O [r249] |  |  |  |  |  |  |  | 6 |  |  |  |
| CC(C)(c1ccc(O)cc1)c1ccc(O)cc1 [r40] | 6.955 | 0 | 0 | 6 | 0 |  |  |  |  |  |  |
| Cc1c(COC(=O)C2C(/C=C(\Cl)C(F)(F)F)C2(C)C)cccc1-c1ccccc1 (centres unmarked) [r39] | 0 | 0 | 0 | 6 | 0 | 0 |  |  |  |  |  |
| CCCC1COC(Cn2cncn2)(c2ccc(Cl)cc2Cl)O1 (centres unmarked) [r262] |  |  |  |  |  |  |  | 6 |  |  |  |
| CCc1cccc(C)c1N(C(=O)CCl)C(C)COC (centres unmarked) [row 208] |  |  |  |  |  |  |  |  | 4.462 |  |  |
| Cc1ccccc1CO[C@@H]1C[C@@]2(C(C)C)CC[C@]1(C)O2 [r64] | 0 | 0 | 0 | 6 | 0 |  |  |  |  |  |  |
| Nc1cnn(-c2ccccc2)c(=O)c1Cl [r56] | 0 | 0 | 0 |  | 0 |  |  |  |  |  |  |
| COC(=O)c1ccccc1CS(=O)(=O)NC(=O)Nc1nc(OC)cc(OC)n1 [r33] | 0 | 0 | 0 |  | 0 | 0 |  |  |  |  |  |
| CNC(=O)Oc1cccc2ccccc12 [r52] | 0 | 0 | 0 | 6 | 0 | 0 |  |  |  |  |  |
| CC(C)=CC1C(C(=O)OCc2coc(Cc3ccccc3)c2)C1(C)C (centres unmarked) [r280] |  |  |  |  |  |  |  |  |  | 4.585 | 6 |
| OB(O)O [r41] | 0 | 0 | 0 |  | 0 | 0 |  |  |  |  |  |
| CCCCOCN(C(=O)CCl)c1c(CC)cccc1CC [r46] | 0 | 0 | 0 |  | 0 | 0 |  |  |  |  |  |
| COc1nc(C)nc(NC(=O)NS(=O)(=O)c2ccccc2Cl)n1 [r63] | 0 | 0 | 0 |  |  |  |  |  |  |  |  |
| CCSC(=O)N(CC(C)C)CC(C)C [r49] | 0 | 0 | 0 | 6 | 0 |  |  |  |  |  |  |
